Assay results taken from patent US12534436B2, “Disubstituted adamantyl derivative or pharmaceutically acceptable salt thereof, and pharmaceutical composition for suppressing cancer growth comprising same as active ingredient” (ONECUREGEN CO., LTD., priority 2020, dated 2026).

Key:
HIF-1α activity = assay: HRE-luciferase assay in HepG2 cells; format: cell-based; conditions: Homo sapiens; HepG2 cells (FIG. 2A)
Description: In the presence of oxygen, when the proline residue of the oxygen-dependent degradation (ODD) domain of HIF-1α is hydroxylated by prolyl hydroxylase (PHD), HIF-1α degradation is promoted by binding to Von Hippel-Lindau syndrome (VHL) associated with VCB-Cul2 E3 ligase that induces proteolysis. […] First, HIF-1α activity was investigated using HRE-luciferase assay in HepG2 cells treated with LW1564 (compound 21-3). The HRE-luciferase reporter assay was performed as previously described using the luciferase assay system (Promega, Madison, WI, USA) according to the manufacturer's instructions (Naik, R. et al. Synthesis and Structure-Activity Relationship of (E)Phenoxyacrylic Amide Derivatives as Hypoxia-Inducible Factor (HIF) la Inhibitors. J. Med. Chem. 55, 10564-1057 (2012)). Luciferase activity was measured using a Victor X light luminescence reader (PerkinElmer, Boston, MA, USA).

HIF-1α mRNA = assay: qPCR of HIF-1α mRNA; format: cell-based, human; conditions: qPCR (FIG. 2C)
Source text: In addition, the amount of HIF-1α mRNA in LW1564-treated cells was investigated by a qPCR method. Total RNA was isolated using TRIzol reagent (Invitrogen), and cDNA was synthesized using TOPscript™ DryMIX (Enzynomics, Seoul, Korea). The HIF1A primer sequences are Fwd 5′-CTGACCCTGCACTCAATCAAG-3′ and Rev 5′-TGGGACTATTAGGCTCAGGTG-3.

HIF-1α = HIF-1α protein accumulation in other cancer cell lines under hypoxia; format: cell-based, human; conditions: A549, WiDr, MIA-CaCa2 and HCT116 (FIG. 2D)
[1] = test system: GLUT1, PDK1 and VEGF mRNA; assay: qPCR of HIF-1 target genes in HepG2 cells; format: cell-based, human; conditions: hypoxia, HepG2 cells (FIG. 2E)
Description: Next, mRNA levels of HIF-1 target genes GLUT1, PDK1 and VEGF were measured. The primer sequences were Fwd 5′-TTTGGCTACAACACTGGAGTC-3′ (SEQ ID NO: 1) and Rev 5′-CATGCCCCCAACAGAAAAGAT-3′ (SEQ ID NO: 2) for GLUT1; Fwd 5′-CAGGACAGCCAATACAAGTGG-3′ (SEQ ID NO: 3) and Rev 5′-CATTACCCAGCGTGACATGAA-3′ (SEQ ID NO: 4) for PDK1; Fwd 5′-CCTTGCTGCTCTACCTCCAC-3′ (SEQ ID NO: 5) and Rev 5′-ATGATTCTGCCCTCCTCCTT-3′ (SEQ ID NO: 6) for VEGFA; and Fwd 5′-CATAGGAAGCTGGGAGCAAG-3′ (SEQ ID NO: 7) and Rev 5′-GCCCTCCAATCAGTCTTCTG-3′ (SEQ ID NO: 8) for RPL13A. […] Taken together, it was identified that LW1564 (compound 21-3) suppressed HIF-1α accumulation through stimulated proteasome degradation, thereby reducing the mRNA expression of the target gene.

intracellular oxygen = assay: Intracellular oxygen with hypoxia probe MAR, HepG2 cells; format: cell-based, human; conditions: hypoxic conditions, 6 hours, 500 nM MAR (FIG. 3D)
Description: Since a decrease in mitochondrial respiration means an increase in the amount of intracellular oxygen, it was evaluated whether the amount of intracellular oxygen increased using MAR, an azo-based hypoxia probe that produces fluorescence under hypoxic conditions. Under hypoxic states, HepG2 cells were cultured with LW1564 (compound 21-3) for 6 hours, stained with 500 nM MAR according to the manufacturer's instructions (Chou, T. C. Theoretical basis, experimental design, and computerized simulation of synergism and antagonism in drug combination studies. Pharmacol. Rev. 58, 621-681 (2006)), and analyzed with an IncuCyte ZOOM® system (Essen BioScience, MI, USA).

Complex II/III = assay: Mitochondrial respiration assay, complex II/III (succinate); format: cell-based, human; conditions: HepG2 cells (FIG. 4C)
Description: Compounds that suppress mitochondrial respiration promote degradation of HIF-1α by increasing cellular oxygen content. Accordingly, it was investigated whether LW1564 (compound 21-3) affected mitochondrial respiration by measuring the oxygen consumption rate (OCR). Oxygen consumption was measured using an Oxytherm Clark-type electrode system (Hansatech, Norfolk, UK) (Chou, T. C. Theoretical basis, experimental design, and computerized simulation of synergism and antagonism in drug combination studies. Pharmacol. Rev. 58, 621-681 (2006)). HepG2 cells (2×10^7) were cultured with 2 μM LW1564 (compound 21-3) for 6 hours, collected, and then OCR was measured at 37° C. for 5 minutes with a thermoregulated controlled circulating system. For […] studies, digitonin-permeabilised HepG2 cells (2×10^7) were read on a detection device containing 2 ml of respiratory buffer (0.25 M sucrose, 2 mM KH2PO4, 5 mM MgCl2, 1 mM EDTA, 1 mM ADP, 20 mM MOPS, pH 7.4). The following substrates, which provide electrons to the components in the ETC, were then added: 5 mM sodium pyruvate, 5 mM sodium malate, 5 mM sodium succinate, 5 mM L-ascorbic acid and 0.2 mM N,N,N,N-tetra methyl-p-phenylenediamine (TMPD). Complex I, III and IV inhibitors (rotenone, antimycin A and KCN, respectively) were added to a final concentration of 1 μM. […]

lipid synthesis = assay: Nile red staining of lipid accumulation in HepG2 cells; format: cell-based, human; conditions: 24 hours (FIG. 5B)
Description: In order to explore this possibility, the effect of LW1564 (compounds 21-3) on lipid synthesis using Nile red, a fluorescent probe that binds to hydrophobic molecules such as lipid droplets was evaluated. Nile red staining was performed as described in “1. Huang, D. et al. HIF-1-mediated suppression of acyl-CoA dehydrogenases and fatty acid oxidation is critical for cancer progression. Cell Rep. 8, 1930-1942 (2014).” HepG2 cells were treated with LW1564 (compound 21-3) for 24 hours and then stained with 200 nM Nile Red and 1 μM Calcein AM for 10 minutes. Data were collected and analyzed with an IncuCyte ZOOM® system (Essen BioScience). For normalization, cell viability was measured using a cell-permeant fluorescent dye, Calcein AM.

COc1cc2c(cc1OC)CN(C(=O)C13CC4CC(C1)CC(c1ccc(OCC(=O)N5CCN(Cc6ccc(C(F)(F)F)cc6)CC5)cc1)(C4)C3)CC2 [Compound 21c, 2-(4-(3-(6,7-Dimethoxy-1,2,3,4-tetrahydroisoquinoline-2-carbonyl)adamantan-1-yl)phenoxy)-1-(4-(4-(trifluoromethyl)benzyl)piperazin-1-yl) ethanone]
IC50 (HIF-1α activity): 1.2 µM | amount of HIF-1α mRNA (HIF-1α mRNA): no change in the amount of HIF-1α mRNA | HIF-1α protein accumulation in various cancer cell lines (HIF-1α): significantly reduced HIF-1α protein accumulation | mRNA amount of HIF-1 target genes GLUT1, PDK1 and VEGF [1]: decreased the mRNA amount of GLUT1, PDK1 and VEGF | MAR fluorescence (hypoxia probe) (intracellular oxygen): significantly reduced fluorescence | oxygen consumption rate in the presence of succinate (Complex II/III): did not affect the oxygen consumption rate | lipid accumulation (Nile red) (lipid synthesis): reduced lipid accumulation in a concentration-dependent manner
